Measured values from patent US20050019308A1, “Oncolytic viruses for the treatment of neoplasms having activated PP2A or Rac” (Oncolytics Biotech Inc., priority 2003, published 2005).

Experiments:
[1] = system: reovirus; assay: Susceptibility of phosphatase inhibitor-treated transformed cells to reovirus infection; type: cell-based; details: okadaic acid-treated cells
Description: (§1) PKR is not phosphorylated (i.e., […]) in cells transformed with elements of the ras pathway, such as v-erbB. To determine whether serine-threonine phosphatases are responsible for the lack of phosphorylation of PKR in these cells, selective inhibitors of the phosphatases are employed to assess the role of each phosphatase. […] Inhibitors specific for PP1 or PP2C have no effects on PKR phosphorylation.

[2] = system: PP2A; details: cited from earlier work
[3] = system: PP2B; details: cited from earlier work
[4] = system: PP1; details: cited from earlier work
[5] = system: PKR; assay: PKR phosphorylation in cells transformed with v-erbB in the presence of selective phosphatase inhibitors; type: cell-based; details: in the presence of the inhibitor
Description: as §1

Q: With `C=C1[C@@H](O)[C@@H]2O[C@]3(CC[C@H](/C=C/[C@@H](C)[C@@H]4CC(C)=C[C@@]5(O[C@H](C[C@@](C)(O)C(=O)O)CC[C@H]5O)O4)O3)CC[C@H]2O[C@@H]1[C@@H](O)C[C@H](C)[C@H]1O[C@@]2(CCCCO2)CC[C@H]1C` [okadaic acid] as the compound, how does the “susceptibility of treated cells to reovirus infection” value [1] read?
A: Its value is “become susceptible to reovirus infection”.

Q: And the effectiveness against phosphatase [2]?
A: Its effectiveness against phosphatase is “most effective against PP2A”.

Q: And the effectiveness against phosphatase [3]?
A: The effectiveness against phosphatase was “only marginally against PP2B”.

Q: And the effectiveness against phosphatase [4]?
A: The effectiveness against phosphatase was “less so against PP1”.

Q: And the “effect on PKR phosphorylation” value [5]?
A: Its value is “PKR becomes phosphorylated”.
